Assays:
[1] = test system: CD20+ cells over CD20- cells of a B-cell lymphoblastic lymphoma patient; test: ex vivo selectivity of compounds to kill cancerous versus non-cancerous cells, pleural effusion of B-LBL patient (Example 7); type: cell-based, human; settings: fraction of live cancerous cells of live total cells relative to DMSO control, <1 = selectively kills cancerous cells
[2] = test system: CD79a+ cells over CD79a- cells of a diffuse large B-cell lymphoma patient; test: ex vivo selectivity of compounds to kill cancerous versus non-cancerous cells, excised lymph node of DLBCL patient (Example 8); type: cell-based, human; settings: fraction of live cancerous cells of live total cells relative to DMSO control; dissociated lymph node cells; <1 = selectively kills cancerous cells
Method: Monolayers were incubated overnight (18 h). […] Unstained cells were considered non-cancerous cells.

SMILES | value/selectivity determined according to the present invention [1] | value/selectivity [2]
Sc1ncnc2nc[nH]c12 [6-mercaptopurine] | 0.58 | 
Nc1nc(Cl)nc2c1ncn2[C@H]1C[C@H](O)[C@@H](CO)O1 [cladribine] |  | 0.73
CC(C)C[C@H](NC(=O)[C@H](Cc1ccccc1)NC(=O)c1cnccn1)B(O)O [bortezomib] | 0.50 | 0.59
